Where two headings read alike, the source gives them in different places.
Biological target: CFTR (Homo sapiens, UniProt P13569)
Assay: Membrane Potential Dye, Enteroid Assay B
Format: cell-based
Method in brief: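 Activity given as % of a triple-combination reference (1 μM and 3 μM correctors, 300 nM acute potentiator). Enteroids were preincubated 18-24 h with compound; chloride efflux then measured 15 min by methyl oxonol fluorescence after forskolin/IBMX/Compound III stimulation in chloride-free buffer containing CaCCinh-A01 and Chicago Sky Blue.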

[1] = Table 10, read-out: Ent. B EC50

CFTR, sequence (P13569 with tags, fused parts or gaps DEL508-508): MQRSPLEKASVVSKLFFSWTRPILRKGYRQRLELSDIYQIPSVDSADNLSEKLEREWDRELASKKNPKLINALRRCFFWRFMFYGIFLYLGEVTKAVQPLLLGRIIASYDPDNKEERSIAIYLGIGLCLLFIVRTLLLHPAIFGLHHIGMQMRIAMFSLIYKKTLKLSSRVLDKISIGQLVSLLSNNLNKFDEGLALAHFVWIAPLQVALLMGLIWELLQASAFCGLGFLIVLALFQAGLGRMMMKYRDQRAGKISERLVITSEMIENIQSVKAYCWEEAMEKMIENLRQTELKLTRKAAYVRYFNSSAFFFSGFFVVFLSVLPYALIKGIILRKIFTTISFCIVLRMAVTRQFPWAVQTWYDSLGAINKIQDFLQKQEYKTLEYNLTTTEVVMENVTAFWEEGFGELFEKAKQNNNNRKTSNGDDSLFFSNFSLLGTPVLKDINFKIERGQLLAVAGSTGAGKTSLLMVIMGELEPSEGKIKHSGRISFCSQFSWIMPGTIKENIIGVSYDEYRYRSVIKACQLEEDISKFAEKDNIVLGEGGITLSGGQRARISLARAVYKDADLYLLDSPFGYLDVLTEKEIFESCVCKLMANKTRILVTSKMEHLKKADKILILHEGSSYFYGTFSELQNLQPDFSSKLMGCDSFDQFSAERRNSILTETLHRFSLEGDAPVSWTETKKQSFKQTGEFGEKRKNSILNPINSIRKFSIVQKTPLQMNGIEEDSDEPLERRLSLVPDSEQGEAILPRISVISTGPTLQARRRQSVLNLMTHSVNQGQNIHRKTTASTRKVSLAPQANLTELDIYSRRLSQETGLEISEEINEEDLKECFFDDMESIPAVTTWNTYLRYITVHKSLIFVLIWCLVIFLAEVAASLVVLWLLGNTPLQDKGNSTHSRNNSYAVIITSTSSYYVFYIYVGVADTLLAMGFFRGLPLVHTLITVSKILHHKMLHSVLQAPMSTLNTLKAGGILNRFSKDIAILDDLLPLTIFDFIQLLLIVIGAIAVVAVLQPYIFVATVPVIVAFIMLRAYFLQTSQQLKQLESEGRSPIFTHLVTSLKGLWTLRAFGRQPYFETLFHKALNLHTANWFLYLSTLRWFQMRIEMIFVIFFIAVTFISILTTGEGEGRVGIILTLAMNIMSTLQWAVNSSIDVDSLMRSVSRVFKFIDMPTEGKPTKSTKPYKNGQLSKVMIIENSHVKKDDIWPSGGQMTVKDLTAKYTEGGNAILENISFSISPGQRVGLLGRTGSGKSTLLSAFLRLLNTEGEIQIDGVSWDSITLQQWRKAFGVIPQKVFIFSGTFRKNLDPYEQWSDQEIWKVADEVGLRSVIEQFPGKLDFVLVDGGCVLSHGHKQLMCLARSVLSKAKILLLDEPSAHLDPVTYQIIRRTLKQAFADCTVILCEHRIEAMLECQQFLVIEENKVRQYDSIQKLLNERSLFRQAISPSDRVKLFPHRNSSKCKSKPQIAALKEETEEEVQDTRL

SMILES	Ent. B Max Activity (%) (Table 9)	EC50 (Table 9, read-out: Ent. B EC50)	Ent. B Max Activity (%)	EC50 (read-out: Ent. B EC50)	other results
[H][C@]1(N2C(=O)c3cccc(c3)S(=O)(=O)Nc3nc(cc(-c4c(C)cccc4C)n3)OC[C@H]2CC(C)C)C[C@@]2(C[C@H](N(C)CCOC)C2)C1 (stereo partly drawn) [Compound 286]	+++ (+++ is >60%)	< 1 µM	–	–	–
Cc1cccc(C)c1-c1cc2nc(n1)NS(=O)(=O)c1cccc(c1)C(=O)N(C1CC3(CCN(CCO)CC3)C1)[C@H](CC(C)C)CO2 [Compound 289]	++ (++ is 30-60%)	< 1 µM	–	–	–
Cc1cccc(C)c1-c1cc2nc(n1)NS(=O)(=O)c1cccc(c1)C(=O)N(C1CC3(CCN(CCOCc4ccccc4)CC3)C1)[C@H](CC(C)C)CO2 [Compound 290]	+++ (+++ is >60%)	< 1 µM	–	–	–
Cc1cccc(C)c1-c1cc2nc(n1)NS(=O)(=O)c1cc(n(C)n1)C(=O)N(C1CC3(CCN(C)CC3)C1)[C@H](CC(C)C)CO2 [Compound 293]	+++ (+++ is >60%)	1 to 3 µM	–	–	–
[H][C@]1(N2C(=O)c3cccc(c3)S(=O)(=O)Nc3nc(cc(-c4c(C)cccc4C)n3)OC[C@H]2CC2(C(F)(F)F)CC2)C[C@@]2(C[C@H](N(C)C)C2)C1 (stereo partly drawn) [Compound 297]	–	–	+++ (+++ is >60%)	< 1 µM	–
[H][C@]1(N2C(=O)c3cccc(c3)S(=O)(=O)Nc3nc(cc(-c4c(C)cccc4C)n3)OC[C@H]2CC2(C(F)(F)F)CC2)C[C@@]2(C[C@H](N(C)C)C2)C1 (stereo partly drawn) [Compound 298]	–	–	+++ (+++ is >60%)	< 1 µM	–
Cc1cccc(C)c1-c1cc2nc(n1)NS(=O)(=O)c1cccc(c1)C(=O)N(C1CC3(CCN(CCOC(F)(F)F)CC3)C1)[C@H](CC(C)C)CO2 [Compound 299]	–	–	+++ (+++ is >60%)	< 1 µM	–
Cc1cccc(C)c1-c1cc2nc(n1)NS(=O)(=O)c1cccc(c1)C(=O)N(C1CC3(CCN(CCOC(C)C)CC3)C1)[C@H](CC(C)C)CO2 [Compound 300]	–	–	–	< 1 µM	–
Cc1cccc(C)c1-c1cc2nc(n1)NS(=O)(=O)c1cccc(c1)C(=O)N([C@H]1C[C@@H](N(C)C)C1)[C@H](CC(C)C)CO2 [Compound 302]	–	–	+++ (+++ is >60%)	< 1 µM	–
CCCN1CCC2(CC1)CC(N1C(=O)c3cccc(c3)S(=O)(=O)Nc3nc(cc(-c4c(C)cccc4C)n3)OC[C@H]1CC(C)C)C2 [Compound 303]	–	–	+++ (+++ is >60%)	< 1 µM	–
COC(=O)N[C@H]1CC2(C1)C[C@H](N1C(=O)c3cccc(c3)S(=O)(=O)Nc3nc(cc(-c4c(C)cccc4C)n3)OC[C@H]1CC(C)C)C2 (stereo partly drawn) [Compound 304]	–	–	+++ (+++ is >60%)	< 1 µM	–
COC(=O)N[C@H]1CC2(C1)C[C@H](N1C(=O)c3cccc(c3)S(=O)(=O)Nc3nc(cc(-c4c(C)cccc4C)n3)OC[C@H]1CC(C)C)C2 (stereo partly drawn) [Compound 305]	–	–	+++ (+++ is >60%)	< 1 µM	–
COCCN(C)C(=O)C1CC(N2C(=O)c3cccc(c3)S(=O)(=O)Nc3nc(cc(-c4c(C)cccc4C)n3)OC[C@H]2CC(C)C)C1 (stereo partly drawn) [Compound 306]	–	–	+++ (+++ is >60%)	< 1 µM	–
Cc1cccc(C)c1-c1cc2nc(n1)NS(=O)(=O)c1cccc(c1)C(=O)N(C1CC(C(=O)N3CCOCC3)C1)[C@H](CC(C)C)CO2 (stereo partly drawn) [Compound 307]	–	–	+++ (+++ is >60%)	< 1 µM	–
COC1CCN(C(=O)C2CC(N3C(=O)c4cccc(c4)S(=O)(=O)Nc4nc(cc(-c5c(C)cccc5C)n4)OC[C@H]3CC(C)C)C2)CC1 (stereo partly drawn) [Compound 308]	–	–	+++ (+++ is >60%)	< 1 µM	–
COC1(C)CCN(C(=O)C2CC(N3C(=O)c4cccc(c4)S(=O)(=O)Nc4nc(cc(-c5c(C)cccc5C)n4)OC[C@H]3CC(C)C)C2)CC1 (stereo partly drawn) [Compound 309]	–	–	+++ (+++ is >60%)	< 1 µM	–
CCOCCN1CCC2(CC1)CC(N1C(=O)c3cccc(c3)S(=O)(=O)Nc3nc(cc(-c4c(C)cccc4C)n3)OC[C@H]1CC(C)C)C2 [Compound 310]	–	–	+++ (+++ is >60%)	< 1 µM	–
Cc1cccc(C)c1-c1cc2nc(n1)NS(=O)(=O)c1cccc(c1)C(=O)N(C1CC3(CCN(CC(F)F)CC3)C1)[C@H](CC(C)C)CO2 [Compound 322]	–	–	+++ (+++ is >60%)	< 1 µM	–
Cc1cccc(C)c1-c1cc2nc(n1)NS(=O)(=O)c1cccc(c1)C(=O)N(C1CC3(CC(=O)C3)C1)[C@H](CC(C)(C)C)CO2 [Compound 352]	–	–	–	–	Ent. B Max Activity (%) (Table 10): +++ (+++ is >60%); EC50 [1]: < 1 µM

SMILES	Ent. B Max Activity (%) (Table 9)	EC50 (Table 9, read-out: Ent. B EC50)	Ent. B Max Activity (%)	EC50 (read-out: Ent. B EC50)	other results
CCC(=O)NC1CC2(C1)CC(N1C(=O)c3cccc(c3)S(=O)(=O)Nc3nc(cc(-c4c(C)cccc4C)n3)OC[C@H]1CC(C)(C)C)C2 (stereo partly drawn) [Compound 353]	–	–	–	–	Ent. B Max Activity (%) (Table 10): +++ (+++ is >60%); EC50 [1]: < 1 µM
Cc1cccc(C)c1-c1cc2nc(n1)NS(=O)(=O)c1cccc(c1)C(=O)N(C1CC3(C1)CC(CO)(CO)C3)[C@H](CC(C)(C)C)CO2 [Compound 354]	–	–	–	–	Ent. B Max Activity (%) (Table 10): +++ (+++ is >60%); EC50 [1]: < 1 µM
CCOC(=O)NC1CC2(C1)CC(N1C(=O)c3cccc(c3)S(=O)(=O)Nc3nc(cc(-c4c(C)cccc4C)n3)OC[C@H]1CC(C)(C)C)C2 (stereo partly drawn) [Compound 357]	–	–	–	–	Ent. B Max Activity (%) (Table 10): +++ (+++ is >60%); EC50 [1]: < 1 µM
Cc1cccc(C)c1-c1cc2nc(n1)NS(=O)(=O)c1cccc(c1)C(=O)N([C@H]1C[C@@H](N3C[C@@H](C)CC3(C)C)C1)[C@H](CC(C)C)CO2 [Compound 359]	–	–	–	–	Ent. B Max Activity (%) (Table 10): ++ (++ is 30-60%); EC50 [1]: < 1 µM
CC(=O)N[C@H]1C[C@@H](N2C(=O)c3cccc(c3)S(=O)(=O)Nc3nc(cc(-c4c(C)cccc4C)n3)OC[C@H]2CC(C)C)C1 [Compound 366]	+++ (+++ is >60%)	< 1 µM	–	–	–
Cc1cccc(C)c1-c1cc2nc(n1)NS(=O)(=O)c1cccc(c1)C(=O)N([C@H]1C[C@@H](NC(C)C)C1)[C@H](CC(C)C)CO2 [Compound 367]	+++ (+++ is >60%)	< 1 µM	–	–	–
COC(=O)N[C@H]1C[C@@H](N2C(=O)c3cccc(c3)S(=O)(=O)Nc3nc(cc(-c4c(C)cccc4C)n3)OC[C@H]2CC(C)C)C1 [Compound 368]	+++ (+++ is >60%)	< 1 µM	–	–	–
Cc1cccc(C)c1-c1cc2nc(n1)NS(=O)(=O)c1cccc(c1)C(=O)N(C1CC(N3CCCC3=O)C1)[C@H](CC(C)C)CO2 (stereo partly drawn) [Compound 369]	–	–	–	–	Ent. B Max Activity (%) (Table 10): ++ (++ is 30-60%); EC50 [1]: < 1 µM
Cc1cccc(C)c1-c1cc2nc(n1)NS(=O)(=O)c1cccc(c1)C(=O)N(C1CC(N[C@H]3CC[C@@H](O)CC3)C1)[C@H](CC(C)C)CO2 (stereo partly drawn) [Compound 371]	+++ (+++ is >60%)	1 to 3 µM	–	–	–
Cc1cccc(C)c1-c1cc2nc(n1)NS(=O)(=O)c1cccc(c1)C(=O)N(C1CC(N[C@H]3CC[C@H](CO)CC3)C1)[C@H](CC(C)C)CO2 (stereo partly drawn) [Compound 373]	+++ (+++ is >60%)	< 1 µM	–	–	–
Cc1cccc(C)c1-c1cc2nc(n1)NS(=O)(=O)c1cccc(c1)C(=O)N(C1CC(NC3CCC3)C1)[C@H](CC(C)C)CO2 (stereo partly drawn) [Compound 375]	+++ (+++ is >60%)	< 1 µM	–	–	–
Cc1cccc(C)c1-c1cc2nc(n1)NS(=O)(=O)c1cccc(c1)C(=O)N(C1CC(N(C)C3CCC3)C1)[C@H](CC(C)C)CO2 (stereo partly drawn) [Compound 376]	+++ (+++ is >60%)	< 1 µM	–	–	–
Cc1cccc(C)c1-c1cc2nc(n1)NS(=O)(=O)c1cccc(c1)C(=O)N(C1CC(NCCC(C)C)C1)[C@H](CC(C)C)CO2 (stereo partly drawn) [Compound 377]	+++ (+++ is >60%)	< 1 µM	–	–	–
Cc1cccc(C)c1-c1cc2nc(n1)NS(=O)(=O)c1cccc(c1)C(=O)N([C@H]1C[C@@H](N3C[C@@H](C)O[C@@H](C)C3)C1)[C@H](CC(C)C)CO2 [Compound 380]	+++ (+++ is >60%)	< 1 µM	–	–	–
COCCN(C)C1CC(N2C(=O)c3cccc(c3)S(=O)(=O)Nc3nc(cc(-c4c(C)cccc4C)n3)OC[C@H]2CC(C)C)C1 (stereo partly drawn) [Compound 382]	+++ (+++ is >60%)	< 1 µM	–	–	–
Cc1cccc(C)c1-c1cc2nc(n1)NS(=O)(=O)c1cccc(c1)C(=O)N(C1CC(N3CCN(C)C(=O)C3)C1)[C@H](CC(C)C)CO2 (stereo partly drawn) [Compound 384]	+++ (+++ is >60%)	< 1 µM	–	–	–
COCCN1CCN([C@H]2C[C@@H](N3C(=O)c4cccc(c4)S(=O)(=O)Nc4nc(cc(-c5c(C)cccc5C)n4)OC[C@H]3CC(C)C)C2)CC1=O [Compound 385]	+++ (+++ is >60%)	< 1 µM	–	–	–
Cc1cccc(C)c1-c1cc2nc(n1)NS(=O)(=O)c1cccc(c1)C(=O)N([C@H]1C[C@@H](N3CCC(OCC4CC4)CC3)C1)[C@H](CC(C)C)CO2 [Compound 386]	+++ (+++ is >60%)	< 1 µM	–	–	–
Cc1cccc(C)c1-c1cc2nc(n1)NS(=O)(=O)c1cccc(c1)C(=O)N([C@H]1C[C@@H](N3CCOCC3)C1)[C@H](CC(C)C)CO2 [Compound 387]	+++ (+++ is >60%)	< 1 µM	–	–	–

Source: US20230382925A1, “MODULATORS OF CYSTIC FIBROSIS TRANSMEMBRANE CONDUCTANCE REGULATOR” (VERTEX PHARMACEUTICALS INCORPORATED, priority 2020, published 2023)
